The values below come from PubChem BioAssay (NCI).

Structures are written as SMILES.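 Five concentrations, 48 hours, 96-well plates. GI50: concentration for 50% inhibition of growth. The concentration for full growth arrest is given as TGI.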

Some test systems named below: SNB-75 CNS; SF-295 CNS; RPMI-8226 leukemia; ACHN renal; HOP-62 NSCLC; OVCAR-3 ovarian; UACC-257 melanoma; COLO 205 colon; A498 renal.
What all share (assay): growth of human tumour cells (NCI), 48 h

Regarding `CC(C)(C)CC(C)(C)c1cc2c(O)c(c1)Cc1cc(C(C)(C)CC(C)(C)C)cc(c1O)Cc1cc(C(C)(C)CC(C)(C)C)cc(c1O)Cc1cc(C(C)(C)CC(C)(C)C)cc(c1O)Cc1cc(C(C)(C)CC(C)(C)C)cc(c1O)Cc1cc(C(C)(C)CC(C)(C)C)cc(c1O)Cc1cc(C(C)(C)CC(C)(C)C)cc(c1O)Cc1cc(C(C)(C)CC(C)(C)C)cc(c1O)C2`, the TGI in the test with SNB-75 CNS, with SF-295 CNS, in the test on RPMI-8226 leukemia, in the test with ACHN renal, in the test with HOP-62 NSCLC and in the test with OVCAR-3 ovarian was greater than 100 µM each time. Besides, the TGI with UACC-257 melanoma and in the test on COLO 205 colon was greater than 100 µM in each case.
Consider `CCCCCCCCCCCc1cc(=O)c2c(O)cccc2o1`, for which the TGI in the test with SNB-75 CNS, in the test with SF-295 CNS, in the test with RPMI-8226 leukemia, in the test on ACHN renal, in the test with HOP-62 NSCLC and with OVCAR-3 ovarian was greater than 100 µM in each case. Besides, the TGI in the test with UACC-257 melanoma and in the test with COLO 205 colon was greater than 100 µM each time.
As for `CC1=CC[C@@H]2C(=O)C=CC=C[C@H]12.[C-]#[O+].[C-]#[O+].[C-]#[O+].[Fe]`, the GI50 is 43.9 µM in the test on SNB-75 CNS; greater than 100 µM with RPMI-8226 leukemia; greater than 100 µM in the test with ACHN renal; greater than 100 µM in the test with HOP-62 NSCLC; greater than 100 µM in the test with OVCAR-3 ovarian; greater than 100 µM in the test with UACC-257 melanoma. Moreover, the GI50 with A498 renal was greater than 100 µM. The TGI in the test with SNB-75 CNS, in the test with RPMI-8226 leukemia, in the test on ACHN renal, in the test on HOP-62 NSCLC, in the test with OVCAR-3 ovarian and in the test on UACC-257 melanoma was greater than 100 µM each time. In addition, the TGI in the test with A498 renal is greater than 100 µM.
As to `COc1cc2ccnc(-c3n[nH]c4cc(OC)c(OC)cc34)c2cc1OC`, the TGI with SNB-75 CNS, in the test with SF-295 CNS, with RPMI-8226 leukemia, in the test with ACHN renal, in the test with HOP-62 NSCLC and in the test with OVCAR-3 ovarian was greater than 100 µM in each case. For the same compound, the TGI in the test on UACC-257 melanoma, in the test with COLO 205 colon and in the test with A498 renal was greater than 100 µM in each case.
As to `O=C(/C=C/c1ccco1)N1CCN(Cc2ccccc2)CC1`, the TGI with SNB-75 CNS, in the test with SF-295 CNS, with RPMI-8226 leukemia, with ACHN renal, in the test on HOP-62 NSCLC and in the test on OVCAR-3 ovarian was greater than 100 µM throughout. Besides, the TGI in the test on UACC-257 melanoma and with A498 renal was greater than 100 µM throughout.
On to `COC(=O)c1ccc(N/C=C(/C#N)c2ccsc2)cc1`, for which the TGI in the test on SNB-75 CNS is 18.9 µM; with SF-295 CNS, 19.9 µM; in the test with RPMI-8226 leukemia, greater than 100 µM; in the test with ACHN renal it was 18.8 µM; with HOP-62 NSCLC, 28.2 µM; in the test on OVCAR-3 ovarian, 23.1 µM. The TGI is greater than 100 µM in the test with UACC-257 melanoma, greater than 100 µM in the test on COLO 205 colon and 15.7 µM in the test on A498 renal.
Turning to `COc1ccc(/C=C\c2cc(OC)c(OC)c(OC)c2)cc1N/C=C\C(=O)c1c[nH]c2ccccc12`, the GI50 in the test with SNB-75 CNS, in the test on SF-295 CNS, in the test on RPMI-8226 leukemia, with ACHN renal, with HOP-62 NSCLC and with OVCAR-3 ovarian was less than 0.01 µM throughout. Besides, the figures for the GI50 in the test on UACC-257 melanoma, in the test with COLO 205 colon and in the test with A498 renal were greater than 100 µM, less than 0.01 µM and less than 0.01 µM, respectively. The TGI in the test with SNB-75 CNS was greater than 100 µM; with SF-295 CNS it was greater than 100 µM; in the test with RPMI-8226 leukemia, 19.6 µM; in the test on ACHN renal it was greater than 100 µM; in the test with HOP-62 NSCLC, greater than 100 µM; with OVCAR-3 ovarian, less than 0.01 µM. Moreover, the values for the TGI in the test on UACC-257 melanoma, in the test with COLO 205 colon and in the test with A498 renal were greater than 100 µM, less than 0.01 µM and 0.0153 µM, respectively.
For the compound `COc1ccccc1NC(=O)C1=C(C)NC(C)=C(C(=O)Nc2ccccc2OC)C1c1ccc(C2C(C(=O)Nc3ccccc3OC)=C(C)NC(C)=C2C(=O)Nc2ccccc2OC)cc1`, the TGI worked out at 25 µM in the test on SNB-75 CNS; 6.28 µM in the test on SF-295 CNS; 8 µM in the test on RPMI-8226 leukemia; 10 µM with ACHN renal; 14 µM in the test on HOP-62 NSCLC; 6.08 µM in the test with OVCAR-3 ovarian. The TGI with UACC-257 melanoma stood at 6.17 µM; in the test on COLO 205 colon, 10.2 µM; in the test on A498 renal it was 15.5 µM.
Turning to `CN(C)C(=S)/N=C(\N)N(C)C`, the TGI in the test on SNB-75 CNS, in the test on SF-295 CNS, in the test on RPMI-8226 leukemia, in the test with ACHN renal, in the test with HOP-62 NSCLC and with UACC-257 melanoma was greater than 100 µM throughout. The compound also came in with a TGI in the test on A498 renal greater than 100 µM.
With `COc1ccccc1N1CCN(CC(O)Cn2c(=O)c3c(OC)nc(C)cc3c(=O)n2-c2ccccc2)CC1` (stereo unspecified), the GI50 in the test with SNB-75 CNS was 14.8 µM; in the test on SF-295 CNS, 25.8 µM; with RPMI-8226 leukemia, 39.6 µM; with ACHN renal, 37.9 µM; with HOP-62 NSCLC, 43.7 µM; in the test with OVCAR-3 ovarian, greater than 100 µM. The GI50 in the test on COLO 205 colon is greater than 100 µM; in the test on A498 renal it was 23.8 µM. Further, the TGI is 37.6 µM in the test on SNB-75 CNS; greater than 100 µM with SF-295 CNS; greater than 100 µM with RPMI-8226 leukemia; greater than 100 µM in the test with ACHN renal; greater than 100 µM in the test with HOP-62 NSCLC; greater than 100 µM in the test with OVCAR-3 ovarian. In addition, the figures for the TGI in the test on COLO 205 colon and in the test with A498 renal were greater than 100 µM and 98.2 µM, respectively.
As to `CCOc1ccc2c(c1)[n+]([O-])c(-c1ccc([N+](=O)[O-])cc1)c(N)[n+]2[O-]`, the TGI in the test with SNB-75 CNS, in the test with SF-295 CNS, in the test with ACHN renal, with HOP-62 NSCLC, with OVCAR-3 ovarian and in the test with UACC-257 melanoma was greater than 100 µM in each case. For the same compound, the TGI in the test with COLO 205 colon and with A498 renal was greater than 100 µM in each case.
Turning to `OCC(O)C(OC1OC(CO)C(O)C(O)C1O)c1nn(-c2ccc(Cl)cc2)c2nc3cc(Cl)c(Cl)cc3nc12` (stereo unspecified), the TGI in the test with SNB-75 CNS, in the test on SF-295 CNS, in the test on RPMI-8226 leukemia, in the test on ACHN renal, in the test with HOP-62 NSCLC and in the test with OVCAR-3 ovarian was greater than 100 µM in each case. Besides, the TGI in the test with UACC-257 melanoma and with A498 renal was greater than 100 µM throughout.
`O=C(CC(=O)c1cccc2ccccc12)C(=O)Nc1nccs1`: the TGI with SNB-75 CNS, in the test with SF-295 CNS, in the test with RPMI-8226 leukemia, with ACHN renal, in the test on HOP-62 NSCLC and with OVCAR-3 ovarian was greater than 100 µM in each case. Further, the TGI in the test on UACC-257 melanoma, with COLO 205 colon and in the test with A498 renal was greater than 100 µM throughout.
